Measured values reported in patent US20230167127A1, “COMPOUNDS AND THEIR USE IN THE TREATMENT OF BACTERIAL INFECTION” (Hoffmann-La Roche Inc., priority 2020, published 2023).
Counter-ions that a name gives are not always drawn. Like-named read-outs stand apart in the source and are kept apart here.

Tested on: Escherichia coli ATCC 25922
Test: 50% growth inhibitory concentration (IC50) determination, Iso-Sensitest broth dilution
Type: cell-based
Conditions: strain Escherichia coli ATCC 25922, 10-point broth dilution, optical density at 600 nm over 16 h, read-out: Escherichia coli growth inhibition IC50
How it was run: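 Growth was tracked as optical density at 600 nm every 20 minutes for 16 h at 35±2° C. Compounds from DMSO stocks were serially diluted twofold over 10 points (e.g. 50–0.097 μM final) in Iso-Sensitest broth. Inhibition computed in log-phase growth to give IC50.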

[1] = Escherichia coli, ATCC25922, 16 h

Row | Molecule | IC50 [1] | IC50
1 | CS(=O)(=O)CCOc1cc(F)c2c(c1)CC(CNCCC1CN(c3cnc4c(n3)NC(=O)CO4)C(=O)O1)C2 (centres unmarked) [Example 353, 6-[5-[2-[[4-fluoro-6-(2-methylsulfonylethoxy)-2,3-dihydro-1H-inden-2-yl]methylamino]ethyl]-2-oxo-1,3-oxazolidin-3-yl]-4H-pyrazino[2,3-b][1,4]oxazin-3-one; formic acid] | 170 nM | –
2 | CNC(=O)C(N)COc1cc(F)c2c(c1)CC(CNCCC1CN(c3ccc4c(n3)NC(=O)CO4)C(=O)O1)C2 (centres unmarked) [Example 255, 2-Amino-3-[[7-fluoro-2-[[2-[2-oxo-3-(3-oxo-4H-pyrido[3,2-b][1,4]oxazin-6-yl)-1,3-oxazolidin-5-yl]ethylamino]methyl]-2,3-dihydro-1H-inden-5-yl]oxy]-N-methylpropanamide; formic acid] | 180 nM | –
3 | NC1(COc2ncc3c(c2Cl)CC(CNCCC2CN(c4ccc5c(n4)NC(=O)CO5)C(=O)O2)C3)CC1 (centres unmarked) [Example 181, 6-[5-[2-[[3-[(1-aminocyclopropyl)methoxy]-4-chloro-6,7-dihydro-5H-cyclopenta[c]pyridin-6-yl]methylamino]ethyl]-2-oxo-1,3-oxazolidin-3-yl]-4H-pyrido[3,2-b][1,4]oxazin-3-one] | < 97.7 nM | –
4 | N#Cc1cc(OCC2(N)CC2)cc2c1CC(CCNCC1CN(c3ccc4c(n3)NC(=O)CO4)C(=O)O1)C2 (centres unmarked) [Example 196, 6-((1-aminocyclopropyl)methoxy)-2-(2-(((2-oxo-3-(3-oxo-3,4-dihydro-2H-pyrido[3,2-b][1,4]oxazin-6-yl)oxazolidin-5-yl)methyl)amino)ethyl)-2,3-dihydro-1H-indene-4-carbonitrile] | < 97.7 nM | –
5 | O=C1COc2ncc(N3CC(CCNCC4Cc5cncc(F)c5C4)OC3=O)nc2N1 (centres unmarked) [Example 287, 6-[5-[2-[(4-fluoro-6,7-dihydro-5H-cyclopenta[c]pyridin-6-yl)methylamino]ethyl]-2-oxo-1,3-oxazolidin-3-yl]-4H-pyrazino[2,3-b][1,4]oxazin-3-one] | < 97.7 nM | –
6 | Cc1nc(OCCCN)c(C)c2c1CC(CNCCC1CN(c3ccc4c(n3)NC(=O)CO4)C(=O)O1)C2 (centres unmarked) [Example 176, 6-[5-[2-[[3-(3-aminopropoxy)-1,4-dimethyl-6,7-dihydro-5H-cyclopenta[c]pyridin-6-yl]methylamino]ethyl]-2-oxo-1,3-oxazolidin-3-yl]-4H-pyrido[3,2-b][1,4]oxazin-3-one] | 483 nM | –
7 | Cc1nc(OCCN)cc2c1CC(CNCCC1CN(c3ccc4c(n3)NC(=O)CO4)C(=O)O1)C2 (centres unmarked) [Example 209, 6-[5-[2-[[3-(2-aminoethoxy)-1-methyl-6,7-dihydro-5H-cyclopenta[c]pyridin-6-yl]methylamino]ethyl]-2-oxo-1,3-oxazolidin-3-yl]-4H-pyrido[3,2-b][1,4]oxazin-3-one] | 845 nM | –
8 | N#Cc1cccc2c1CC(NC1CCC3(CN(c4ccc5c(n4)NC(=O)CO5)C(=O)O3)C(N)C1)C2 (racemic) [Example 166, 2-[[rac-5,6-cis-5,8-trans-6-amino-2-oxo-3-(3-oxo-4H-pyrido[3,2-b][1,4]oxazin-6-yl)-1-oxa-3-azaspiro[4.5]decan-8-yl]amino]-2,3-dihydro-1H-indene-4-carbonitrile] | – | 172 nM
9 | CN(C)CCOc1cc(F)c2c(c1)CC(CNCCC1CN(c3ccc4c(n3)NC(=O)CO4)C(=O)O1)C2 (centres unmarked) [Example 271, 6-[5-[2-[[6-[2-(Dimethylamino)ethoxy]-4-fluoro-2,3-dihydro-1H-inden-2-yl]methylamino]ethyl]-2-oxo-1,3-oxazolidin-3-yl]-4H-pyrido[3,2-b][1,4]oxazin-3-one; formic acid] | < 97.7 nM | –
10 | CC(N)COc1cc(F)c2c(c1)CC(CN1CCC3(CC1)CN(c1cnc4c(n1)NC(=O)CO4)C(=O)O3)C2 (centres unmarked) [Example 260, 6-[8-[[6-(2-Aminopropoxy)-4-fluoro-2,3-dihydro-1H-inden-2-yl]methyl]-2-oxo-1-oxa-3,8-diazaspiro[4.5]decan-3-yl]-4H-pyrazino[2,3-b][1,4]oxazin-3-one; formic acid] | < 97.7 nM | –
11 | N#Cc1nc(OCC2(N)CC2)cc2c1CC(CNCCC1CN(c3ccc4c(n3)NC(=O)CO4)C(=O)O1)C2 (centres unmarked) [Example 125] | 111 nM | –
12 | O=C1COc2ncc(N3CC(CCNCC4Cc5c(F)cc(OCc6cc[nH]n6)c(F)c5C4)OC3=O)nc2N1 (centres unmarked) [Example 395, 6-[5-[2-[[4,7-difluoro-5-(1H-pyrazol-3-ylmethoxy)-2,3-dihydro-1H-inden-2-yl]methylamino]ethyl]-2-oxo-1,3-oxazolidin-3-yl]-4H-pyrazino[2,3-b][1,4]oxazin-3-one] | 166 nM | –
13 | NC(CN1CC2(C1)CN(c1ccc3c(n1)NC(=O)CO3)C(=O)O2)C1Cc2cccc(Cl)c2C1 (centres unmarked) [Example 159, 6-[2-[2-amino-2-(4-chloro-2,3-dihydro-1H-inden-2-yl)ethyl]-6-oxo-5-oxa-2,7-diazaspiro[3.4]octan-7-yl]-4H-pyrido[3,2-b][1,4]oxazin-3-one; formic acid] | 170 nM | –
14 | Cc1ncc(C#N)c2c1CC(NCCCc1cn(-c3cnc4c(n3)NC(=O)CO4)c(=O)o1)C2 (single isomer, unassigned; enantiomer b) [Example 322, 1-Methyl-6-[3-[2-oxo-3-(3-oxo-4H-pyrazino[2,3-b][1,4]oxazin-6-yl)-1,3-oxazol-5-yl]propylamino]-6,7-dihydro-5H-cyclopenta[c]pyridine-4-carbonitrile, Enantiomer B] | – | < 97.7 nM
15 | O=C1COc2ncc(N3CC(CCNCC4Cc5cc(OCC(=O)NC6CC6)cc(F)c5C4)OC3=O)nc2N1 (centres unmarked) [Example 346, N-cyclopropyl-2-[[7-fluoro-2-[[2-[2-oxo-3-(3-oxo-4H-pyrazino[2,3-b][1,4]oxazin-6-yl)-1,3-oxazolidm-5-yl]ethylamino]methyl]-2,3-dihydro-1H-inden-5-yl]oxy]acetamide; formic acid] | 311 nM | –
16 | O=C1COc2ccc(N3CC(CCNCC4Cc5c(Cl)cccc5C4O)OC3=O)nc2N1 (racemic) [Example 231, 6-[2-Oxo-5-[2-[[rac-1,2-cis-4-chloro-1-hydroxy-2,3-dihydro-1H-inden-2-yl]methylamino]ethyl]-1,3-oxazolidin-3-yl]-4H-pyrido[3,2-b][1,4]oxazin-3-one] | – | 176 nM
17 | Cc1ncc(F)c2c1CC(NCC(O)CC1CN(c3cnc4c(n3)NC(=O)CO4)C(=O)O1)C2 (single isomer, unassigned; isomer a) [Example 313, 6-[2-Oxo-5-[3-[(4-fluoro-1-methyl-6,7-dihydro-5H-cyclopenta[c]pyridin-6-yl)amino]-2-hydroxypropyl]-1,3-oxazolidin-3-yl]-4H-pyrazino[2,3-b][1,4]oxazin-3-one; formic acid, Isomer A] | 1900 nM | –
18 | NC1(COc2cc(F)c3c(c2)CC(CNCCC2CN(c4cnc5c(n4)NC(=O)CO5)C(=O)O2)C3)CC1 (centres unmarked) [Example 161, 6-[5-[2-[[6-[(1-aminocyclopropyl)methoxy]-4-fluoro-2,3-dihydro-1H-inden-2-yl]methylamino]ethyl]-2-oxo-1,3-oxazolidin-3-yl]-4H-pyrazino[2,3-b][1,4]oxazin-3-one] | < 97.7 nM | –
19 | CS(=O)(=O)N1CC(Oc2cc(F)c3c(c2)CC(CNCCC2CN(c4cnc5c(n4)NC(=O)CO5)C(=O)O2)C3)C1 (centres unmarked) [Example 355, 6-[5-[2-[[4-fluoro-6-(1-methylsalfonylazetidin-3-yl)oxy-2,3-dihydro-1H-inden-2-yl]methylamino]ethyl]-2-oxo-1,3-oxazolidin-3-yl]-4H-pyrazino[2,3-b][1,4]oxazin-3-one hydrochloride] | 162 nM | –
20 | O=C1COc2ccc(N3CC(CCNCC4Cc5cccc(Cl)c5C4)OC3=O)cc2N1 (centres unmarked) [Example 15, 6-[5-[2-[(4-chloro-2,3-dihydro-1H-inden-2-yl)methylamino]ethyl]-2-oxo-1,3-oxazolidin-3-yl]-4H-1,4-benzoxazin-3-one; formic acid] | 188 nM | –
21 | 2-[[2-[2-oxo-3-(3-oxo-4H-pyrazino[2,3-b][1,4]oxazin-6-yl)-1,3-oxazolidin-5-yl]ethylamino]methyl]-6-(1H-triazol-5-ylmethoxy)-2,3-dihydro-1H-indene-4-carbonitrile [Example 426] | – | 156 nM
22 | N#Cc1nccc2c1CC(CNCCC1CN(c3ccc4c(n3)NC(=O)CO4)C(=O)O1)C2N (racemic) [Example 133, rac-5,6-trans-5-amino-6-[[2-[2-oxo-3-(3-oxo-4H-pyrido[3,2-b][1,4]oxazin-6-yl)-1,3-oxazolidin-5-yl]ethylamino]methyl]-6,7-dihydro-5H-cyclopenta[c]pyridine-1-carbonitrile; formic acid] | 1380 nM | –
23 | CNC(=O)COc1cc(C)c2c(c1C)CC(CNCCC1CN(c3cnc4c(n3)NC(=O)CO4)C(=O)O1)C2 (centres unmarked) [Example 113, 2-[[4,7-dimethyl-2-[[2-[2-oxo-3-(3-oxo-4H-pyrazino[2,3-b][1,4]oxazin-6-yl)-1,3-oxazolidin-5-yl]ethylamino]methyl]-2,3-dihydro-1H-inden-5-yl]oxy]-N-methylacetamide] | 323 nM | –
24 | N#Cc1cc(OCc2cn[nH]c2)cc2c1CC(CNCCC1CN(c3cnc4c(n3)NC(=O)CO4)C(=O)O1)C2 (centres unmarked) [Example 405, 2-[[2-[2-oxo-3-(3-oxo-4H-pyrazino[2,3-b][1,4]oxazin-6-yl)-1,3-oxazolidin-5-yl]ethylamino]methyl]-6-(1H-pyrazol-4-ylmethoxy)-2,3-dihydro-1H-indene-4-carbonitrile; formic acid] | < 97.7 nM | –
25 | Cc1nc2c(c3c1CC(CNCCC1CN(c4cnc5c(n4)NC(=O)CO5)C(=O)O1)C3)CCN2C (centres unmarked) [Example 424, 6-[5-[2-[(5,8-Dimethyl-5,7-diazatricyclo[7.3.0.0^2,6]dodeca-1,6,8-trien-11-yl)methylamino]ethyl]-2-oxo-1,3-oxazolidin-3-yl]-4H-pyrazino[2,3-b][1,4]oxazin-3-one] | 227 nM | –
26 | Cc1ncc(F)c2c1C[C@H](CNCC[C@@H]1CN(c3cnc4c(n3)NC(=O)CO4)C(=O)O1)C2 [Example 430] | < 97.7 nM | –
